# Measured values taken from patent US11464782B2, “Method of treating pain or interstitial cystitis using indole compound” (Japan Tobacco Inc., priority 2018, dated 2022).
# What was measured:
# CIA model rats = test: Analgesic effect in rat collagen-induced arthritis (CIA) model, paw withdrawal threshold by Randall-Selitto method; type: in vivo; conditions: rats with CIA; 10 or 30 mg/kg oral once per day Days 22-28; measured Day 28
# Experimental: The analgesic effect of Compound A on hypersensitivity to pain during the onset of arthritis in a rat CIA model was evaluated. Hypersensitivity to pain was evaluated using the paw withdrawal threshold (PWT) in relation to mechanical stimulus using the Randall-Selitto method.
# Female LEW/CrlCrlj rats (Charles River Laboratories Japan, Inc.) were used for the experiment. A monohydrochloride of Compound A was dissolved in 0.5% methyl cellulose (MC) to prepare 2 mg/mL and 6 mg/mL solutions of Compound A. Type II collagen derived from joint bovine cartilage (Collagen Research Center) was dissolved in acetic acid to prepare a 2 mg/mL type II collagen solution. Equal volumes of the 2 mg/mL type II collagen solution and incomplete Freund's adjuvant were mixed to prepare a 1 mg/mL type II collagen emulsion.
# On Day 1, the type II collagen emulsion was intradermally injected into the animals in the vehicle group, the Compound A 10 mg/kg administration group, and the Compound A 30 mg/kg administration group. On Day 8, the type II collagen emulsion was intradermally injected into the animals in the vehicle group, the Compound A 10 mg/kg administration group, and the Compound A 30 mg/kg administration group. […] On Day 28, the analgesic effect was measured using a Randall-Selitto analgesy-meter (TK-201, UNICOM). The means values and standard deviations of the PWT values for each group were calculated.
# [1] = test system: NGF-induced thermal hyperalgesia; test: NGF-induced thermal hyperalgesia in rats (plantar test, paw withdrawal latency); type: in vivo, rat
# Experimental: In order to induce a pain-related behavior (withdrawal behavior), NGF was injected into the plantar area of the left hind paw of rats and the thermal latencies/mechanical thresholds were measured. The effects of Compound A on these withdrawal behaviors were investigated. At 2 days before the injection of NGF, the thermal latencies or mechanical thresholds were measured for acclimation to the experimental environment. On the day before injection of NGF, body weights and values of the thermal latencies or mechanical thresholds were obtained. 50 μL of NGF solution was injected intraplantar to left hind paw of rats. 0.5 μg/site of NGF was selected in the evaluation of thermal stimuli and 1 μg/site was selected in that of mechanical stimuli. A monohydrochloride of Compound A (1, 3, or 10 mg/kg) was administered orally at the same time as the NGF injection. The latencies to thermal stimuli were measured at 3 and 6 hours after injection of NGF solution, and the thresholds to mechanical stimuli were measured at 1, 3 and 6 hours after injection of NGF solution. The evaluation was performed as a blind test of each group. The thermal latency was measured using a plantar test apparatus. An infrared heat stimuli was delivered to the plantar area of the hind paw and the time to withdraw the paw from the heat source was recorded automatically as the thermal latency. The measurement was performed 5 times for both hind paws of each animal, the averages of the last 3 values in each hind paw were accounted as the thermal latencies of each animal. The measurement for acclimation was performed only 3 times.
# [2] = test system: NGF-induced mechanical hyperalgesia; test: NGF-induced mechanical hyperalgesia in rats (pressure analgesy-meter, paw withdrawal threshold); type: in vivo, rat
# Experimental: In order to induce a pain-related behavior (withdrawal behavior), NGF was injected into the plantar area of the left hind paw of rats and the thermal latencies/mechanical thresholds were measured. The effects of Compound A on these withdrawal behaviors were investigated. At 2 days before the injection of NGF, the thermal latencies or mechanical thresholds were measured for acclimation to the experimental environment. On the day before injection of NGF, body weights and values of the thermal latencies or mechanical thresholds were obtained. 50 μL of NGF solution was injected intraplantar to left hind paw of rats. 0.5 μg/site of NGF was selected in the evaluation of thermal stimuli and 1 μg/site was selected in that of mechanical stimuli. A monohydrochloride of Compound A (1, 3, or 10 mg/kg) was administered orally at the same time as the NGF injection. The latencies to thermal stimuli were measured at 3 and 6 hours after injection of NGF solution, and the thresholds to mechanical stimuli were measured at 1, 3 and 6 hours after injection of NGF solution. The evaluation was performed as a blind test of each group. The mechanical threshold was measured using a pressure analgesy-meter. A mechanical stimulus (pressure) increased at a constant rate was added to the hind paw, and the pressure under load until animals withdrew its hind paw or vocalization was recorded as the mechanical threshold (mmHg).
# [3] = test system: rats with CYP-induced cystitis; test: Rat CYP-induced cystitis model, frequent urination by cystometry; type: in vivo; conditions: 2 or 6 mg/mL solutions at 5 mL/kg oral twice a day Day 1-2, cystometry Day 3
# Experimental: The effect of Compound A on frequent urination, calculated by single voided volume and intermicturition interval, was evaluated using a rat CYP-induced cystitis model. The evaluation was performed according to G M. Herrera et al., PLoS ONE 5 (8): e12298. Female CD (SD) rats (Charles River Laboratories Japan, Inc.) were used as the experimental animals. A monohydrochloride of Compound A was dissolved in 0.5% MC to prepare 2 mg/mL and 6 mg/mL solutions of Compound A.
# 30 mg/mL of CYP (Sigma) dissolved in saline was intraperitoneally administered in the vehicle group and Compound A group and saline was intraperitoneally administered in the sham group at 5 mL/kg (Day 1).
# 0.5% (w/v) MC was orally administered once a day for 2 days (Day 1-2) in the sham group and vehicle group at 5 mL/kg, and 2 mg/mL or 6 mg/mL solutions of Compound A was orally administered twice a day (Day 1-2) in the Compound A administration group at 5 mL/kg.
# Intravesical pressure and voided volume were measured by cystometry on Day 3, and single voided volumes and intermicturition intervals were calculated. Mean values were calculated for each group from individual single voided volumes and intermicturition intervals, and the results are shown in FIG. 12A and FIG. 12B, respectively.
# [4] = at 6 hours after NGF injection, oral
# [5] = compared with the vehicle, 1, 3, 10 mg/kg oral, dose related
smiles,measurement,setting,value
"C[C@@H](C(=O)N(C)c1ccc2cc(-c3n[nH]c4c3CCC(C)(C)C4)[nH]c2c1)N1CCOCC1 [Compound A, N-[2-(6,6-dimethyl-4,5,6,7-tetrahydro-1H-indazol-3-yl)-1H-indol-6-yl]-N-methyl-(2S)-2-(morpholin-4-yl)propanamide]",hyperalgesia (paw withdrawal threshold to mechanical stimulus),CIA model rats,attenuated hyperalgesia
same,dose from which significant effects were observed (thermal latency),[1]; [4],≥ 3 mg/kg
same,effect on the decrease in the thermal latencies induced by NGF,[1]; [5],prevented the decrease in the thermal latencies induced by NGF
same,dose from which significant effects were observed (mechanical threshold),[2]; [4],≥ 3 mg/kg
same,effect on the decrease in the mechanical thresholds induced by NGF,[2]; [5],prevented the decrease in the mechanical thresholds induced by NGF
same,"frequent urination (single voided volume, intermicturition interval)",[3],suppressed frequent urination
